Several values for one entry are separate records, joined by “and”; a condition that tells them apart may be missing. Identical values can stand only once. Entries after “also recorded” stand apart in the source; their conditions may differ.
Legend:
female ZDF rats [1] = experiment: Serum triglycerides and cholesterol in female ZDF rats on a diabetogenic high fat diet, Compound 1 at 0.03-0.3 mg/kg; type: in vivo, rat; settings: for Cholesterol day 8, 0 hr, Mean / Triglycerides day 8, 0 hr, Mean / Cholesterol day 0, 4 hr, Mean / Triglycerides day 0, 4 hr, Mean / Cholesterol day 7, 4 hr, Mean / Triglycerides day 7, 4 hr, Mean / Cholesterol day 3, 4 hr, Mean / Triglycerides day 3, 4 hr, Mean: group mean of 4 rats; for Cholesterol day 8, 0 hr, Mean / Triglycerides day 8, 0 hr, Mean / Cholesterol day 8, 0 hr / Triglycerides day 8, 0 hr: 24 hours after the last dosing; for Cholesterol day 0, 4 hr, Mean / Triglycerides day 0, 4 hr, Mean / Cholesterol day 0, 4 hr / Triglycerides day 0, 4 hr: day before dosing (baseline); for Cholesterol day 7, 4 hr, Mean / Triglycerides day 7, 4 hr, Mean / Cholesterol day 7, 4 hr / Triglycerides day 7, 4 hr: seventh day of dosing; for Cholesterol day 3, 4 hr, Mean / Triglycerides day 3, 4 hr, Mean / Cholesterol day 3, 4 hr / Triglycerides day 3, 4 hr: third day of dosing; for Cholesterol day 8, 0 hr / Triglycerides day 8, 0 hr / Cholesterol day 0, 4 hr / Triglycerides day 0, 4 hr / Cholesterol day 7, 4 hr / Triglycerides day 7, 4 hr / Cholesterol day 3, 4 hr / Triglycerides day 3, 4 hr: individual animals
Experimental: ZDF rats, which are hyperlipidemic and diabetic, were used as a model to test the effect of RAR antagonists/inhibitors on serum lipids. Female ZDF rats (10–11 weeks old) were fed a GMI 13004 diet, a diabetogenic, high fat diet, for 5–6 weeks. Compound 1 was dissolved in vehicle (2% DMSO, 98% corn oil). Compound 1 was administered at a dosage of 0.03 mg/kg, 0.1 mg/kg, and 0.3 mg/kg body weight. Dosings were performed at approximately 8 a.m. Serum was collected at approximately 12 p.m. on the day before dosing (Day 0, 4 hour); the third day of dosing (Day 3, 4 hour); the seventh day of dosing (Day 7, 4 hour); and 24 hours after the last dosing (Day 8, 0 hour). The levels of triglycerides and cholesterol in the serum samples were measured.

female ZDF rats [2] = experiment: Serum triglycerides and cholesterol in female ZDF rats, Compound 1 and Compound 2 at 10 mg/kg; type: in vivo, rat; settings: 10 mg/kg oral
Experimental: A similar experiment to that described above was performed. Briefly, female ZDF rats (12 weeks old) were fed either a PM 5008 diet or a GMI 13004 diet. Control vehicle consisted of 2% DMSO and 98% corn oil. Compound 1 and Compound 2 were administered at a dosage of 10 mg/kg body weight. Dosings were administered at approximately 8 a.m. Serum was collected on the first day of dosing at approximately 8 a.m. (Day 1, 0 hour) and 2 p.m. (Day 1, 6 hour); the fourth day of dosing at approximately 8 a.m. (Day 4, 0 hour); and the last day of dosing at approximately 8 a.m. (Day 7, 0 hour) and 2 p.m. (Day 7, 6 hour). The levels of triglycerides and cholesterol in the serum samples were measured. The results are shown in Table 2 and are illustrated graphically in FIGS. 3A and 3B.

male cynomolgus monkeys = experiment: Serum triglycerides of male cynomolgus monkeys treated by gastric intubation; type: in vivo, cynomolgus monkey; settings: 1.0 mg/0.4 ml/kg by gastric intubation, daily; mean of 3 monkeys
Experimental: Five male cynomologus monkeys were employed in the study. […] Compound 1 is an RAR antagonist or inhibitor. The remaining two were similarly treated with a vehicle to serve as control. Serum samples were collected on days 1, 8, 15, 22 and 25 for triglyceride determination. Serum samples from days 8, 15, 22 and 25 were also assayed for the concentration of Compound 1.

[3] = Serum concentration of Compound 1 in male cynomolgus monkeys; type: in vivo, cynomolgus monkey; settings: given orally
Experimental: (§1) Five male cynomologus monkeys were employed in the study. Three of the five monkeys were treated with Compound 1 at a daily dosage of 1.25 mg/kg (orally) for a period of 25 days. Compound 1 is an RAR antagonist or inhibitor. The remaining two were similarly treated with a vehicle to serve as control. Serum samples were collected on days 1, 8, 15, 22 and 25 for triglyceride determination. Serum samples from days 8, 15, 22 and 25 were also assayed for the concentration of Compound 1.

male cynomologus monkeys = experiment: Clinical observation, body weight and food consumption of treated monkeys; type: in vivo, cynomolgus monkey; settings: daily 1.25 mg/kg orally for 25 days
Experimental: as §1

male SJL mice = experiment: Hepatic triglyceride (HTG) output after WR-1339 injection in fasted male SJL mice; type: in vivo, mouse; settings: 20 mg/kg oral daily for 4 days; fasted
Experimental: On day 4, animals were fasted after dosing, starting at 8 a.m. Following 6 hours of fasting, blood samples were collected prior to intravenous injection of WR-1339 at 100 mg/5 ml/kg. Additional serum samples were collected at 1 and 2 hours after WR-1339 injection. WR-1339 is a detergent that inactivates lipoprotein lipase and thus prevents the removal of triglycerides from circulation. By measuring the increase of STG after WR-1339 administration in fasted animals, the hepatic triglyceride (HTG) output during fasting can be estimated.
Due to the lack of effect of Compound 3 at 20 mg/kg, the dose was increased to 100 mg/kg in the same set of mice. STG was determined on day 3 prior to dosing (Day 3, 8 a.m.). […] To ensure that Compound 3 would be bioavailable, Compound 3 was dissolved in DMSO and given by intraperitoneal injections, once at 4 p.m. on day 3 and once at 8 a.m. on day 4, at a dosage of 100 mg/kg/injection. Administration of WR-1339 and blood collections on day 4 were similarly conducted as described above.

[4] = Stability to normal light; type: physicochemical
[5] = GMI 13004 diet, group mean of 5 rats, first day of dosing, 2 p.m.
[6] = GMI 13004 diet, group mean of 5 rats, first day of dosing, about 8 a.m. (baseline)
[7] = GMI 13004 diet, group mean of 5 rats, fourth day of dosing, 8 a.m.
[8] = GMI 13004 diet, group mean of 5 rats, last day of dosing, 2 p.m.
[9] = GMI 13004 diet, group mean of 5 rats, last day of dosing, 8 a.m.
[10] = GMI 13004 diet, individual animals, first day of dosing, 2 p.m.
[11] = GMI 13004 diet, individual animals, first day of dosing, about 8 a.m. (baseline)
[12] = GMI 13004 diet, individual animals, fourth day of dosing, 8 a.m.
[13] = GMI 13004 diet, individual animals, last day of dosing, 2 p.m.
[14] = GMI 13004 diet, individual animals, last day of dosing, 8 a.m.

CCc1ccc(C2=CC(C)(C)Sc3ccc(C#Cc4ccc(C(=O)O)cc4)cc32)cc1 [Compound 1, 4-[[4-(4-ethylphenyl)-2,2-dimethyl-(2H)-thiochromen-6-yl]-ethynyl]-benzoic acid]
serum triglyceride levels as % of pre-treatment triglyceride levels (female ZDF rats [1]; 0.03 mg/kg oral): about 59%
Cholesterol day 8, 0 hr, Mean (female ZDF rats [1]; 0.03 mg/kg oral): 110
Triglycerides day 8, 0 hr, Mean (female ZDF rats [1]; 0.03 mg/kg oral): 781
Cholesterol day 0, 4 hr, Mean (female ZDF rats [1]; 0.03 mg/kg oral): 123
Triglycerides day 0, 4 hr, Mean (female ZDF rats [1]; 0.03 mg/kg oral): 1334
Cholesterol day 7, 4 hr, Mean (female ZDF rats [1]; 0.03 mg/kg oral): 109
Triglycerides day 7, 4 hr, Mean (female ZDF rats [1]; 0.03 mg/kg oral): 749
Cholesterol day 3, 4 hr, Mean (female ZDF rats [1]; 0.03 mg/kg oral): 105
Triglycerides day 3, 4 hr, Mean (female ZDF rats [1]; 0.03 mg/kg oral): 794
Cholesterol day 8, 0 hr (female ZDF rats [1]; 0.03 mg/kg oral): 108 (2×) and 93 and 129
Triglycerides day 8, 0 hr (female ZDF rats [1]; 0.03 mg/kg oral): 846 and 531 and 1230 and 516
Cholesterol day 0, 4 hr (female ZDF rats [1]; 0.03 mg/kg oral): 114 and 129 (2×) and 120
Triglycerides day 0, 4 hr (female ZDF rats [1]; 0.03 mg/kg oral): 1200 and 1245 and 1944 and 945
Cholesterol day 7, 4 hr (female ZDF rats [1]; 0.03 mg/kg oral): 111 and 105 and 96 and 123
Triglycerides day 7, 4 hr (female ZDF rats [1]; 0.03 mg/kg oral): 771 and 468 and 855 and 903
Cholesterol day 3, 4 hr (female ZDF rats [1]; 0.03 mg/kg oral): 93 and 96 and 129 and 102
Triglycerides day 3, 4 hr (female ZDF rats [1]; 0.03 mg/kg oral): 663 and 651 and 1197 and 666
serum triglyceride levels as % of pre-treatment triglyceride levels (female ZDF rats [1]; 0.1 mg/kg oral): ~40%
Cholesterol day 8, 0 hr, Mean (female ZDF rats [1]; 0.1 mg/kg oral): 105
Triglycerides day 8, 0 hr, Mean (female ZDF rats [1]; 0.1 mg/kg oral): 479
Cholesterol day 0, 4 hr, Mean (female ZDF rats [1]; 0.1 mg/kg oral): 125
Triglycerides day 0, 4 hr, Mean (female ZDF rats [1]; 0.1 mg/kg oral): 1208
Cholesterol day 7, 4 hr, Mean (female ZDF rats [1]; 0.1 mg/kg oral): 107
Triglycerides day 7, 4 hr, Mean (female ZDF rats [1]; 0.1 mg/kg oral): 505
Cholesterol day 3, 4 hr, Mean (female ZDF rats [1]; 0.1 mg/kg oral): 106
Triglycerides day 3, 4 hr, Mean (female ZDF rats [1]; 0.1 mg/kg oral): 497
Cholesterol day 8, 0 hr (female ZDF rats [1]; 0.1 mg/kg oral): 102 (2×) and 105 and 111
Triglycerides day 8, 0 hr (female ZDF rats [1]; 0.1 mg/kg oral): 390 and 339 and 486 and 699
Cholesterol day 0, 4 hr (female ZDF rats [1]; 0.1 mg/kg oral): 123 (2×) and 129 and 126
Triglycerides day 0, 4 hr (female ZDF rats [1]; 0.1 mg/kg oral): 1284 and 993 and 1197 and 1356
Cholesterol day 7, 4 hr (female ZDF rats [1]; 0.1 mg/kg oral): 114 and 90 and 111 (2×)
Triglycerides day 7, 4 hr (female ZDF rats [1]; 0.1 mg/kg oral): 429 and 384 and 618 and 588
Cholesterol day 3, 4 hr (female ZDF rats [1]; 0.1 mg/kg oral): 129 and 84 and 96 and 114
Triglycerides day 3, 4 hr (female ZDF rats [1]; 0.1 mg/kg oral): 402 and 360 and 681 and 546
serum triglyceride levels as % of pre-treatment triglyceride levels (female ZDF rats [1]; 0.3 mg/kg oral): ~14%
Cholesterol day 8, 0 hr, Mean (female ZDF rats [1]; 0.3 mg/kg oral): 115
Triglycerides day 8, 0 hr, Mean (female ZDF rats [1]; 0.3 mg/kg oral): 215
Cholesterol day 0, 4 hr, Mean (female ZDF rats [1]; 0.3 mg/kg oral): 131
Triglycerides day 0, 4 hr, Mean (female ZDF rats [1]; 0.3 mg/kg oral): 1550
Cholesterol day 7, 4 hr, Mean (female ZDF rats [1]; 0.3 mg/kg oral): 119
Triglycerides day 7, 4 hr, Mean (female ZDF rats [1]; 0.3 mg/kg oral): 215
Cholesterol day 3, 4 hr, Mean (female ZDF rats [1]; 0.3 mg/kg oral): 101
Triglycerides day 3, 4 hr, Mean (female ZDF rats [1]; 0.3 mg/kg oral): 282
Cholesterol day 8, 0 hr (female ZDF rats [1]; 0.3 mg/kg oral): 102 and 120 and 123 and 114
Triglycerides day 8, 0 hr (female ZDF rats [1]; 0.3 mg/kg oral): 222 and 180 and 195 and 261
Cholesterol day 0, 4 hr (female ZDF rats [1]; 0.3 mg/kg oral): 105 and 141 and 156 and 123
Triglycerides day 0, 4 hr (female ZDF rats [1]; 0.3 mg/kg oral): 882 and 1725 and 2244 and 1350
Cholesterol day 7, 4 hr (female ZDF rats [1]; 0.3 mg/kg oral): 99 and 126 and 132 and 120
Triglycerides day 7, 4 hr (female ZDF rats [1]; 0.3 mg/kg oral): 195 and 222 and 267 and 174
Cholesterol day 3, 4 hr (female ZDF rats [1]; 0.3 mg/kg oral): 93 and 96 and 108 (2×)
Triglycerides day 3, 4 hr (female ZDF rats [1]; 0.3 mg/kg oral): 282 and 234 and 297 and 315
effect on serum cholesterol levels (female ZDF rats [1]; 0.03-0.3 mg/kg oral): effective at lowering serum cholesterol levels, although the effect was more modest than observed for serum triglycerides
effect on lowering serum cholesterol (female ZDF rats [2]): more modest effect
serum triglycerides as % of pre-treatment levels (female ZDF rats [2]): about 7%
Cholesterol day 1, 6 hr, Mean (female ZDF rats [2]; [5]): 107
Triglycerides day 1, 6 hr, Mean (female ZDF rats [2]; [5]): 1183
Cholesterol day 1, 0 hr, Mean (female ZDF rats [2]; [6]): 131
Triglycerides day 1, 0 hr, Mean (female ZDF rats [2]; [6]): 1410
Cholesterol day 4, 0 hr, Mean (female ZDF rats [2]; [7]): 82
Triglycerides day 4, 0 hr, Mean (female ZDF rats [2]; [7]): 138
Cholesterol day 7, 6 hr, Mean (female ZDF rats [2]; [8]): 90
Triglycerides day 7, 6 hr, Mean (female ZDF rats [2]; [8]): 86
Cholesterol day 7, 0 hr, Mean (female ZDF rats [2]; [9]): 89
Triglycerides day 7, 0 hr, Mean (female ZDF rats [2]; [9]): 72
Cholesterol day 1, 6 hr (female ZDF rats [2]; [10]): 132 and 90 (2×) and 126 and 96
Triglycerides day 1, 6 hr (female ZDF rats [2]; [10]): 1248 and 750 and 1674 and 978 and 1266
Cholesterol day 1, 0 hr (female ZDF rats [2]; [11]): 162 and 108 (2×) and 156 and 120
Triglycerides day 1, 0 hr (female ZDF rats [2]; [11]): 1770 and 1182 and 1500 and 1278 and 1320
Cholesterol day 4, 0 hr (female ZDF rats [2]; [12]): 78 and 90 (2×) and 84 and 66
Triglycerides day 4, 0 hr (female ZDF rats [2]; [12]): 174 and 132 and 114 and 102 and 168
Cholesterol day 7, 6 hr (female ZDF rats [2]; [13]): 102 and 72 and 132 and 48 and 96
Triglycerides day 7, 6 hr (female ZDF rats [2]; [13]): 96 and 66 and 60 (2×) and 150
Cholesterol day 7, 0 hr (female ZDF rats [2]; [14]): 96 (2×) and 84 and 66 and 102
Triglycerides day 7, 0 hr (female ZDF rats [2]; [14]): 78 and 96 and 60 (2×) and 66
Serum triglycerides Day 25, Mean (male cynomolgus monkeys): 24.0 mg/dL
oral absorption [3]: well absorbed
body weight or rate of food consumption (male cynomologus monkeys): no change
general health / clinical signs (male cynomologus monkeys; 1.25 mg/kg): appeared healthy; also recorded: without any noticeable abnormal clinical signs
HTG output after WR-1339 injection (male SJL mice): reduction of HTG output
stability to normal light [4]: relatively stable to normal light

— patent US7105566B2, “Methods of treatment during vascular procedures” (Allergan, Inc., priority 2002, dated 2006)
